The results in this text go back to ChEMBL document CHEMBL3045562, “4-Pyridyl carbonyl compounds as thrips lures: effectiveness for Western flower thrips in y-tube bioassays” (2008).

Structures are written as SMILES. Calls of active or inactive are those of the source. The calls are words filed in the database; no cut-off is given here.

Format in all cases: functional
The subject of assay [1] is Frankliniella occidentalis. Briefly: Thrips luring activity against female Frankliniella occidentalis (western flower thrips) assessed as induction of thrips to walk up odor-laden arm of Y-tube olfactometer by Y-tube olfactometer bioassay.
Assay [2] concerns Frankliniella occidentalis. Kind of assay: Thrips luring activity against female Frankliniella occidentalis (western flower thrips) assessed as induction of thrips to walk up odor-laden arm of Y-tube olfactometer at 1 uL by Y-tube olfactometer bioassay.
Assay [3] has as its system Frankliniella occidentalis. Briefly: Thrips luring activity against female Frankliniella occidentalis (western flower thrips) assessed as induction of thrips to walk up odor-laden arm of Y-tube olfactometer at 1 x 10^-3 uL by Y-tube olfactometer bioassay.
The test system of assay [4] is Frankliniella occidentalis. Briefly: Thrips luring activity against female Frankliniella occidentalis (western flower thrips) assessed as induction of thrips to walk up odor-laden arm of Y-tube olfactometer at 1 x 10^-2 uL by Y-tube olfactometer bioassay.
For assay [5], the system named is Frankliniella occidentalis. Briefly: Thrips luring activity against female Frankliniella occidentalis (western flower thrips) assessed as induction of thrips to walk up odor-laden arm of Y-tube olfactometer at 1 x 10^-5 uL by Y-tube olfactometer bioassay.
Assay [6] has as its system Frankliniella occidentalis. Briefly: Thrips luring activity against female Frankliniella occidentalis (western flower thrips) assessed as induction of thrips to walk up odor-laden arm of Y-tube olfactometer at 5 x 10^-1 uL by Y-tube olfactometer bioassay.
The test system of assay [7] is Frankliniella occidentalis. Briefly: Thrips luring activity against female Frankliniella occidentalis (western flower thrips) assessed as trapping of thrips using compound treated yellow sticky traps relative to untreated control under commercial greenhouse.
A further assay concerns Thrips obscuratus. Kind of assay: Thrips luring activity against female New Zealand Thrips obscuratus (flower thrips) assessed as induction of thrips to walk up odor-laden arm of Y-tube olfactometer by Y-tube olfactometer bioassay.
The subject of assay [8] is Frankliniella occidentalis. Kind of assay: Thrips luring activity against female Frankliniella occidentalis (western flower thrips) assessed as induction of thrips to walk up odor-laden arm of Y-tube olfactometer at 1 x 10^-1 uL by Y-tube olfactometer bioassay.
In assay [9] the test system is Frankliniella occidentalis. Briefly: Thrips luring activity against female Frankliniella occidentalis (western flower thrips) assessed as induction of thrips to walk up odor-laden arm of Y-tube olfactometer at 5 x 10^-4 uL by Y-tube olfactometer bioassay.
For assay [10], the system named is Frankliniella occidentalis. Kind of assay: Thrips luring activity against female Frankliniella occidentalis (western flower thrips) assessed as induction of thrips to walk up odor-laden arm of Y-tube olfactometer at 5 x 10^-3 uL by Y-tube olfactometer bioassay.

For the compound `CCCCC(=O)OC1CC2CCC1(C)C2(C)C` (centres undefined), in [1], the outcome was Active. Regarding `CCOC(=O)c1ccnc(Cl)c1`, in assay [1], the result was Active. As to `CCCC(O)c1ccncc1` (centres undefined) [1-(4-pyridyl)-1-butanol], in assay [2], the Activity is listed as 47%.

Regarding `OCCc1ccncc1` [4-(2-HYDROXYETHYL)PYRIDINE], the Activity is 79% in assay [2], 48% in [3] and 59% in assay [4]. As to `O=Cc1ccncc1` [4-FORMYLPYRIDINE], the Activity in [4] is on record as 15%. Besides, the outcome in assay [5] was Active. On to `COc1ccc(C=O)cc1` [ANISALDEHYDE], for which the Activity in [5] came to 52%. As to `CC(C)N(C(=O)c1ccncc1)C(C)C` [DI-ISOPROPYL ISONICOTINAMIDE], the Activity in assay [6] amounted to 81%. Consider `CCOC(=O)c1ccncc1` [ETHYL ISONICOTINATE], for which the MAD in assay [1] is 1 ×10⁻⁴ microL; in the assay on Thrips obscuratus it was 1 ×10⁻³ microL. For the same compound, the “fold change (FC)” value in assay [7] amounted to 14.

In the case of `CCOC(=O)C1CCNCC1` [ETHYL ISONIPECOTATE], the Activity was determined as 63% in [2] and 49% in assay [4]. As for `CCOC(=O)c1cccnc1` [ETHYL NICOTINATE], the MAD in the assay with Thrips obscuratus stood at 1 ×10⁻⁶ microL. Regarding `CC(C)=CCOC(=O)c1ccncc1` [ISO-PENTENYL ISONICOTINATE], the Activity in assay [2] came to 49%.

Regarding `N#Cc1ccncc1` [ISONICOTINONITRILE], the Activity in assay [6] was found to be 39%. Turning to `CC(C)OC(=O)c1ccncc1` [ISOPROPYL ISONICOTINATE], the MAD in [1] was 1 ×10⁻² microL. As for `CC(=O)c1ccncc1` [METHYL 4-PYRIDYLKETONE], in assay [7], the “fold change (FC)” value worked out at 4.5. In the case of `COC(=O)c1ccncc1` [METHYL ISONICOTINATE], the MAD in assay [1] came out at 1 ×10⁻⁶ microL. Besides, the “fold change (FC)” value in [7] is listed as 14. For `CCCOC(=O)c1ccncc1` [N-PROPYL ISONICOTINATE], in assay [1], the MAD was determined as 1 ×10⁻³ microL. Consider `CCCC(=O)c1ccncc1` [PROPYL 4-PYRIDYL KETONE], for which the Activity in [2] was found to be 55%; in assay [8] it was 47%. With `OCc1ccncc1` [PYRIDINE 4-METHANOL], the Activity in assay [2] is reported as 52%. `c1cc(C2OCCO2)ccn1` [PYRIDINE, 4-(1,3-DIOXALAN-2-YL)]: the Activity is recorded as 48% in assay [9], 61% in [6] and 63% in assay [10].
